# According to PubChem BioAssay (NCI):
#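 Cells were grown in 96-well plates and exposed to each compound for 48 hours at five concentrations; endpoints were interpolated linearly between bracketing concentrations, or set to the highest concentration if not reached. GI50 marks 50% less growth. TGI: total growth inhibition.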
# Key:
# Assay in all cases: NCI anticancer screen, dose series, 48 h
# [1] = test system: 786-0 renal
# [2] = test system: A498 renal
# [3] = test system: A549 NSCLC
# [4] = test system: ACHN renal
# [5] = test system: BT-549 breast
# [6] = test system: CAKI-1 renal
# [7] = test system: CCRF-CEM leukemia
# [8] = test system: COLO 205 colon
# [9] = test system: DU-145 prostate
# [10] = test system: EKVX NSCLC
# [11] = test system: HCC-2998 colon
# [12] = test system: HCT-116 colon
# [13] = test system: HCT-15 colon
# [14] = test system: HL-60(TB) leukemia
# [15] = test system: HOP-62 NSCLC
# [16] = test system: HOP-92 NSCLC
# [17] = test system: HS 578T breast
# [18] = test system: HT29 colon
# [19] = test system: IGROV1 ovarian
# [20] = test system: K-562 leukemia
# [21] = test system: KM12 colon
# [22] = test system: LOX IMVI melanoma
# [23] = test system: M14 melanoma
# [24] = test system: MALME-3M melanoma
# [25] = test system: MCF7 breast
# [26] = test system: MDA-MB-231 breast
# [27] = test system: MDA-MB-435
# [28] = test system: MOLT-4 leukemia
# [29] = test system: NCI-H226 lung
# [30] = test system: NCI-H23 lung
# [31] = test system: NCI-H460 lung
# [32] = test system: NCI-H522 lung
# [33] = test system: NCI/ADR-RES ovarian
# [34] = test system: OVCAR-3 ovarian
# [35] = test system: OVCAR-4 ovarian
# [36] = test system: OVCAR-5 ovarian
# [37] = test system: OVCAR-8 ovarian
# [38] = test system: PC-3 prostate
# [39] = test system: RPMI-8226 leukemia
# [40] = test system: RXF 393 renal
# [41] = test system: SF-268 CNS
# [42] = test system: SF-295 CNS
# [43] = test system: SF-539 CNS
# [44] = test system: SK-MEL-2 melanoma
# [45] = test system: SK-MEL-28 melanoma
# [46] = test system: SK-MEL-5 melanoma
# [47] = test system: SK-OV-3 ovarian
# [48] = test system: SN12C renal
# [49] = test system: SNB-19 CNS
# [50] = test system: SNB-75 CNS
# [51] = test system: SW-620 colon
# [52] = test system: T-47D breast
# [53] = test system: TK-10 renal
# [54] = test system: U251 CNS
# [55] = test system: UACC-257 melanoma
# [56] = test system: UACC-62 melanoma
# [57] = test system: UO-31 renal
compound,measurement,setting,value
C[C@@H]1CN(c2ccc3ncc(C#Cc4cncc(C(=O)Nc5ccc(CN6CCN(C)CC6)c(C(F)(F)F)c5)c4)n3n2)C[C@H](C)O1,GI50,[1],48.3 nM
same,TGI,[1],202 nM
same,GI50,[2],118 nM
same,TGI,[2],253 nM
same,GI50,[3],63.6 nM
same,TGI,[3],410 nM
same,GI50,[4],37.5 nM
same,TGI,[4],211 nM
same,GI50,[5],135 nM
same,TGI,[5],411 nM
same,GI50,[6],33.9 nM
same,TGI,[6],157 nM
same,GI50,[7],200 nM
same,TGI,[7],10300 nM
same,GI50,[8],135 nM
same,TGI,[8],781 nM
same,GI50,[9],50.4 nM
same,TGI,[9],292 nM
same,GI50,[10],39.9 nM
same,TGI,[10],300 nM
same,GI50,[11],153 nM
same,TGI,[11],956 nM
same,GI50,[12],34.5 nM
same,TGI,[12],274 nM
same,GI50,[13],45.4 nM
same,TGI,[13],471 nM
same,GI50,[14],50.7 nM
same,TGI,[14],312 nM
same,GI50,[15],121 nM
same,TGI,[15],844 nM
same,GI50,[16],28.8 nM
same,TGI,[16],118 nM
same,GI50,[17],32.8 nM
same,TGI,[17],348 nM
same,GI50,[18],67.4 nM
same,TGI,[18],1100 nM
same,GI50,[19],34.4 nM
same,TGI,[19],201 nM
same,TGI,[20],359 nM
same,TGI,[21],563 nM
same,GI50,[22],36.8 nM
same,TGI,[22],144 nM
same,GI50,[23],36.5 nM
same,TGI,[23],322 nM
same,GI50,[24],77.8 nM
same,TGI,[24],251 nM
same,GI50,[25],51.3 nM
same,TGI,[25],651 nM
same,GI50,[26],32 nM
same,TGI,[26],223 nM
same,GI50,[27],86.1 nM
same,TGI,[27],1110 nM
same,GI50,[28],77.7 nM
same,TGI,[28],529 nM
same,GI50,[29],33.9 nM
same,TGI,[29],334 nM
same,GI50,[30],102 nM
same,TGI,[30],322 nM
same,GI50,[31],74.9 nM
same,TGI,[31],732 nM
same,GI50,[32],33.9 nM
same,TGI,[32],181 nM
same,GI50,[33],445 nM
same,TGI,[33],1910 nM
same,GI50,[34],98.2 nM
same,TGI,[34],1150 nM
same,GI50,[35],123 nM
same,TGI,[35],1590 nM
same,GI50,[36],157 nM
same,TGI,[36],975 nM
same,GI50,[37],176 nM
same,TGI,[37],991 nM
same,GI50,[38],128 nM
same,TGI,[38],1810 nM
same,GI50,[39],258 nM
same,TGI,[39],5640 nM
same,GI50,[40],30.1 nM
same,TGI,[40],141 nM
same,GI50,[41],111 nM
same,TGI,[41],522 nM
same,GI50,[42],214 nM
same,TGI,[42],1530 nM
same,GI50,[43],33.2 nM
same,TGI,[43],135 nM
same,GI50,[44],130 nM
same,TGI,[44],294 nM
same,GI50,[45],295 nM
same,TGI,[45],1340 nM
same,GI50,[46],270 nM
same,TGI,[46],1160 nM
same,GI50,[47],216 nM
same,TGI,[47],736 nM
same,GI50,[48],26.9 nM
same,TGI,[48],275 nM
same,GI50,[49],325 nM
same,TGI,[49],1150 nM
same,GI50,[50],102 nM
same,TGI,[50],235 nM
same,GI50,[51],57.7 nM
same,TGI,[51],2450 nM
same,GI50,[52],363 nM
same,TGI,[52],5360 nM
same,GI50,[53],68.3 nM
same,TGI,[53],400 nM
same,GI50,[54],119 nM
same,TGI,[54],1300 nM
same,GI50,[55],228 nM
same,TGI,[55],1410 nM
same,GI50,[56],138 nM
same,TGI,[56],1010 nM
same,GI50,[57],79.8 nM
same,TGI,[57],361 nM
